Changes are numbered by the printed parent chain. Values joined by “and” are separate entries in the source; they are usually repeats but may differ in a detail not shown here. Equal entries are not always repeated.
Assays:
[1] = Dissolution of DIM-3C for crystal soaking; assay type: physicochemical; settings: for soaking xlσ1R crystals
From the text: Finally, it is worth mentioning another structural effort that we attempted to capture an open conformation of σ1R by soaking a ligand of extended length into the xlσ1R crystals. We anticipated that the ligand would extend through the ligand entrance and cause the receptor to adopt an open state. Such an extended ligand, N^1,N^3-bis(1-((R)-3-([1,1′-biphenyl]-4-yl)butyl)-piperidin-4-yl)malonamide (DIM-3C)[21], was kindly provided by Dr. Collina and Dr. Rossino for soaking the xlσ1R crystals. […] The density was readily and best modeled with an S1RA molecule. Its morpholine ring sits between α4 and α5 and is surrounded by residues 179, 203, and Leu97, whereas the rest of the ligand remains outside of the receptor, possibly representing an entering (or exiting) pose for the ligand. Meanwhile, due to the relatively low resolution (3.80 Å) of the xlσ1RC179/C203-S1RA structure, this extra density needs to be interpreted with caution, and we used it only for supplementary discussion.

wild-type xlσ1R = target: T1, wild-type xlσ1R (Xenopus laevis, UniProt Q6DCU6); assay: ITC binding of PRE084 to wild-type xlσ1R before/after mPEG-Mal-5K modification; settings: for WT stoichiometry, After modification: mPEG-Mal-5K; for Kd: WT Kd
T1 construct: The gene encoding the full-length wild-type σ1R from Xenopus laevis; hemagglutinin signal peptide (N); decahistidine (His10) (N); TEV protease recognition site (N); made in house; host or cells: Pichia pastoris GS115
T1 sequence (Q6DCU6 1-221): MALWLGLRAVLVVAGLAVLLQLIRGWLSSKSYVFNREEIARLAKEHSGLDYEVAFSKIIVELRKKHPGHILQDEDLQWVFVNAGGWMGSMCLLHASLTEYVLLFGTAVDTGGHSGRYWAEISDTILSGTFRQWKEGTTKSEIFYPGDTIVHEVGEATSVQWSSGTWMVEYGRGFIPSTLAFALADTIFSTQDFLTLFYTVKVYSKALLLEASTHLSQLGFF

xlσ1R-C203 = target: T2, xlσ1R-C203 (Xenopus laevis, UniProt Q6DCU6, Y203C); assay: ITC binding of PRE084 to xlσ1R-C203 before/after mPEG-Mal-5K modification
T2 construct: The gene encoding the full-length wild-type σ1R from Xenopus laevis; hemagglutinin signal peptide (N); decahistidine (His10) (N); TEV protease recognition site (N); made in house; host or cells: Pichia pastoris GS115
T2 sequence (Q6DCU6 1-221 Y203C): T1 sequence (Q6DCU6 1-221) with Y203C

xls1R-C179 or xls1R-C203 = assay: mPEG-Mal-5K modification of xlσ1R cysteine mutants with added PRE084 (SDS-PAGE); assay type: biochemical, Xenopus laevis; settings: 1 mM PRE084 added to dialyzed protein sample before mPEG-Mal-5K treatment
Description: Modification of wild-type and cysteine mutants of xlσ1R was performed with a bulky thiol-modifying reagent, methoxypolyethylene glycol maleimide 5000 (mPEG-Mal-5K)[33]. Briefly, the SEC-purified xlσ1R protein in the absence of β-mercaptoethanol were incubated with 1 mM mPEG-Mal-5K at room temperature for 1 h, and the modification reaction was stopped by addition of β-mercaptoethanol to a final concentration of 10 mM before another SEC purification to remove any free mPEG-Mal-5K. For the entrance blocking experiment, the modified xlσ1R-C179 or xlσ1R-C203 proteins were subjected to ITC or SDS-PAGE analysis. For the assessment of disulfide formation in xlσ1R-C179/C203, the modified sample was analyzed by SDS-PAGE. To reduce background modification and facilitate gel analysis, the only native cysteine (Cys91) was mutated to serine in all samples for the disulfide analysis. […]
would affect the modification efficiency (Response Fig. 1). However, extensive dialysis of the […]
1 to lane 5 for C179, and lane 3 to la ne 7 f o r C2 03). […]
modification efficiency (compare lane 1 to lane 2 for C179, and lane 3 to lane 4 for C203).
Therefore, it seems less likely that the ligand binding hindered mPEG -Ma l-5K modification. […]
before mPEG-Ma l-5K treatment were indicated above the gel. Protein samples were analyzed by SDS-PAGE and Coomassie blue staining. […]

xlσ1R-C179 = target: T3, xlσ1R-C179 (Xenopus laevis, UniProt Q6DCU6, L179C); assay: ITC binding of PRE084 to xlσ1R-C179 before/after mPEG-Mal-5K modification
T3 construct: The gene encoding the full-length wild-type σ1R from Xenopus laevis; hemagglutinin signal peptide (N); decahistidine (His10) (N); TEV protease recognition site (N); made in house; host or cells: Pichia pastoris GS115
T3 sequence (Q6DCU6 1-221 L179C): T1 sequence (Q6DCU6 1-221) with L179C

wild-type xls1R = target: T4, wild-type xls1R (Xenopus laevis, UniProt Q6DCU6); assay: Resistance of wild-type xlσ1R to chymotrypsin with added PRE084 (SDS-PAGE); assay type: biochemical; settings: 1 mM PRE084 added to dialyzed protein before chymotrypsin treatment
T4 construct: The gene encoding the full-length wild-type σ1R from Xenopus laevis; hemagglutinin signal peptide (N); decahistidine (His10) (N); TEV protease recognition site (N); made in house; host or cells: Pichia pastoris GS115
T4 sequence (Q6DCU6 1-221): T1 sequence (Q6DCU6 1-221)

xlσ1R-C179/C203 = target: T5, xlσ1R-C179/C203 (Xenopus laevis, UniProt Q6DCU6, L179C/Y203C); assay: ITC binding of PRE084 to xlσ1R-C179/C203 (disulfide oxidation / re-reduction)
T5 construct: The gene encoding the full-length wild-type σ1R from Xenopus laevis; hemagglutinin signal peptide (N); decahistidine (His10) (N); TEV protease recognition site (N); made in house; host or cells: Pichia pastoris GS115
T5 sequence (Q6DCU6 1-221 L179C/Y203C): T1 sequence (Q6DCU6 1-221) with L179C, Y203C

[2] = ITC, Mean of repeats (source data Fig. 4e)
[3] = ITC, individual repeats (source data Fig. 4e)
[4] = equilibrium dissociation constant (Kd)

C[C@H](CCN1CCC(NC(=O)CC(=O)NC2CCN(CC[C@@H](C)c3ccc(-c4ccccc4)cc3)CC2)CC1)c1ccc(-c2ccccc2)cc1 [DIM-3C, N^1,N^3-bis(1-((R)-3-([1,1′-biphenyl]-4-yl)butyl)-piperidin-4-yl)malonamide]
solubility [1]: could only be dissolved with organic solvents such as methanol and dimethyl sulfoxide

O=C(OCCN1CCOCC1)C1(c2ccccc2)CCCCC1 [PRE084, [2-(morpholin-4-yl)ethyl] 1-phenylcyclohexane-1-carboxylate]
change of affinity (Kd) after mPEG-Mal-5K treatment (wild-type xlσ1R): changed little | WT stoichiometry, Before modification (wild-type xlσ1R; [2]): 0.8695 | WT stoichiometry, Before modification (wild-type xlσ1R; [3]): 0.883 and 0.874 and 0.993 and 0.728 | WT stoichiometry, After modification (wild-type xlσ1R; [2]): 0.9143 | WT stoichiometry, After modification (wild-type xlσ1R; [3]): 0.933 and 0.896 and 0.874 and 1.040 and 0.883 and 0.860 | change of stoichiometry (number of available binding sites per protomer) after mPEG-Mal-5K treatment (wild-type xlσ1R; ITC, modification of native Cys91): changed little | Kd (wild-type xlσ1R; After modification): 1.22 µM and 1.29 µM and 1.23 µM and 1.08 µM (2×) and 1.12 µM | Kd (wild-type xlσ1R; Before modification): 1120 nM and 1210 nM and 871 nM and 1100 nM | Kd (xlσ1R-C203; C203 Kd, After modification): 1500 nM and 1730 nM and 1620 nM | Kd (xlσ1R-C203; C203 Kd, Before modification): 971 nM and 977 nM and 1030 nM | C203 stoichiometry, Before modification (xlσ1R-C203; [2]): 0.8717 | Kd (xlσ1R-C203; [4]): 1610 nM and 990 nM | effect of added ligand on mPEG-Mal-5K modification efficiency (xls1R-C179 or xls1R-C203): no appreciable effect | Kd (xlσ1R-C179; C179 Kd, After modification): 1910 nM and 2010 nM and 1930 nM and 1970 nM | Kd (xlσ1R-C179; C179 Kd, Before modification): 972 nM and 990 nM and 1090 nM and 1040 nM | Kd (xlσ1R-C179; [4]): 1020 nM and 1950 nM | effect of added ligand on chymotrypsin digestion (wild-type xls1R): no appreciable effect | Kd (xlσ1R-C179/C203; C179/C203 Kd, After oxidation): 7810 nM and 5080 nM and 7240 nM | Kd (xlσ1R-C179/C203; C179/C203 Kd, Before oxidation): 960 nM and 710 nM and 380 nM and 510 nM and 850 nM | Kd (xlσ1R-C179/C203; C179/C203 Kd, Re-reduction): 1760 nM and 1390 nM and 1450 nM and 1570 nM | Kd (xlσ1R-C179/C203; [4]): 680 nM and 6710 nM and 1540 nM

Source: article PMC8913746, “An open-like conformation of the sigma-1 receptor reveals its ligand entry pathway” (Nature Communications, 2022)
